Measurements published in patent publication US9920069B2, “Compounds for treatment of fluoroquinolone-resistant bacteria” (The Board of Trustees of the University of Illinois, priority 2014, dated 2018).
Converted amounts (≈) assume the structure as drawn. Like-named read-outs stand apart in the source and are kept apart here.

Key:
[1] = tested on: S. aureus 29213 (WT GyrA and WT ParC); assay: microbe, parasite or virus in culture; type: cell-based; settings: for MIC: Staphylococcus aureus, WT GyrA and WT ParC, read-out: MIC against S. aureus 29213
Protocol: (§1) Susceptibility testing was performed in triplicate using the microdilution broth method as outlined by the Clinical and Laboratory Standards Institute CLSI^52. MH broth was used.

[2] = tested on: VRE clinical isolate C28036; assay: microbe, parasite or virus in culture; type: cell-based, Ent. Spp.; settings: Enterococcus
Protocol: (§2) QRDR mutations were determined as described in the text using primers (primer sequences can be found in Table 7).
as §1

[3] = tested on: VRE clinical isolates; assay: Panel of VRE clinical isolates (FIG. 2B); type: cell-based, Enterococcus; settings: n=22, in words
[4] = in vivo; settings: female, C57BL/6, mouse, po
Protocol: As a prelude to exploring in vivo efficacy, the toxicity and pharmacokinetic profile of DNM and key derivatives was evaluated.
The animal studies (PK, in vivo toxicity and in vivo efficacy) were carried out in strict accordance with the recommendations in the Guide for the Care and Use of Laboratory Animals of the National Institutes of Health. […] In these studies, 10-12 week old female C57BL/6 mice purchased from Charles River were used. DNM, DNM-2, and DNM-3 were formulated as slurries at 8.3 mg mL^−1 in 25% Cremophor RH40/water (v/v). Before beginning the pharmacokinetic assessment, mice were first tested for their ability to tolerate the DNM, DNM-2, and DNM-3 at 50 mg kg^−1 (p.o.). […] . At specified time points, mice were sacrificed and blood was collected, centrifuged, and the serum was frozen at −80° C. until analysis. The proteins in a 50 μL aliquot of serum were precipitated by the addition of 50 μL of acetonitrile and the sample was centrifuged to remove the proteins. Serum concentrations of DNM, DNM-2, and DNM-3 were determined by HPLC. PK parameters were determined using GraphPad Prism Version 5.00 for Windows.

[5] = tested on: high level CIP resistant strains of S. aureus ATCC 29213 (S84L GyrA); assay: microbe, parasite or virus in culture; type: cell-based; settings: Staphylococcus aureus, ATCC29213
[6] = physchem; settings: organic solvent or mixture, thermodynamic from solid
[7] = tested on: MRSA clinical isolate SAU.495; assay: microbe, parasite or virus in culture; type: cell-based, S. aureus; settings: Staphylococcus aureus, read-out: MIC
Protocol: as §1

[8] = tested on: MRSA clinical isolate SAU.493; assay: microbe, parasite or virus in culture; type: cell-based, S. aureus; settings: Staphylococcus aureus, read-out: MIC
Protocol: as §1

[9] = tested on: MRSA clinical isolate SAU.496; assay: microbe, parasite or virus in culture; type: cell-based, S. aureus; settings: Staphylococcus aureus, read-out: MIC
Protocol: as §1

[10] = tested on: MRSA clinical isolate SAU.708; assay: microbe, parasite or virus in culture; type: cell-based, S. aureus; settings: Staphylococcus aureus, read-out: MIC
Protocol: as §1

[11] = tested on: MRSA clinical isolate SAU.710; assay: microbe, parasite or virus in culture; type: cell-based, S. aureus; settings: Staphylococcus aureus, read-out: MIC
Protocol: as §1

[12] = tested on: MRSA clinical isolate SAU.491; assay: microbe, parasite or virus in culture; type: cell-based, S. aureus; settings: Staphylococcus aureus, read-out: MIC
Protocol: as §1

[13] = tested on: MRSA clinical isolate SAU.709; assay: microbe, parasite or virus in culture; type: cell-based, S. aureus; settings: Staphylococcus aureus, read-out: MIC
Protocol: as §1

[14] = tested on: MRSA clinical isolate SAU.494; assay: microbe, parasite or virus in culture; type: cell-based, S. aureus; settings: Staphylococcus aureus, read-out: MIC
Protocol: as §1

[15] = tested on: MRSA clinical isolate SAU.492; assay: microbe, parasite or virus in culture; type: cell-based, S. aureus; settings: Staphylococcus aureus, read-out: MIC
Protocol: as §1

[16] = tested on: MRSA clinical isolate SAU.489; assay: microbe, parasite or virus in culture; type: cell-based, S. aureus; settings: Staphylococcus aureus, read-out: MIC
Protocol: as §1

[17] = tested on: Enterococcus ATCC 19433; assay: organism not typed; type: cell-based, E. faecalis; settings: ATCC 19433, E. faecalis; gyrA WT, parC WT; read-out: MIC
[18] = tested on: PA1586; assay: MIC, microdilution broth; type: cell-based, P. aeruginosa; settings: Pseudomonas aeruginosa
Protocol: E. coli MG1655 and the ΔAcrB strain were obtained from Prof. Cari Vanderpool at UIUC.
as §1

[19] = tested on: VRE clinical isolate U464; assay: organism not typed; type: cell-based, E. faecium
Protocol: as §2, §1

[20] = tested on: VRE clinical isolate S235; assay: organism not typed; type: cell-based, E. faecium
Protocol: as §2, §1

[21] = tested on: VRE clinical isolate U63; assay: organism not typed; type: cell-based, E. faecium
Protocol: as §2, §1

[22] = tested on: VRE clinical isolate S34; assay: organism not typed; type: cell-based, E. faecium
Protocol: as §2, §1

[23] = tested on: VRE clinical isolate C21190; assay: organism not typed; type: cell-based, E. faecium
Protocol: as §2, §1

[24] = tested on: VRE clinical isolate U563; assay: organism not typed; type: cell-based, E. faecium
Protocol: as §2, §1

[25] = tested on: VRE clinical isolate C27282; assay: organism not typed; type: cell-based, E. faecium
Protocol: as §2, §1

[26] = tested on: VRE clinical isolate U275; assay: organism not typed; type: cell-based, E. faecium
Protocol: as §2, §1

[27] = tested on: VRE clinical isolate U503; assay: organism not typed; type: cell-based, E. faecium
Protocol: as §2, §1

[28] = tested on: VRE clinical isolate S226; assay: organism not typed; type: cell-based, E. faecium
Protocol: as §2, §1

[29] = tested on: VRE clinical isolate S51; assay: organism not typed; type: cell-based, E. faecium
Protocol: as §2, §1

[30] = target: T1, WT E. coli DNA gyrase (Escherichia coli, UniProt P0AES4); type: biochemical; settings: in words
T1 construct: His tag (pTrcHisA vector, purified on Ni-NTA); made in house; host or cells: E. coli One Shot BL21 Star (DE3)
T1 sequence (P0AES4 whole entry): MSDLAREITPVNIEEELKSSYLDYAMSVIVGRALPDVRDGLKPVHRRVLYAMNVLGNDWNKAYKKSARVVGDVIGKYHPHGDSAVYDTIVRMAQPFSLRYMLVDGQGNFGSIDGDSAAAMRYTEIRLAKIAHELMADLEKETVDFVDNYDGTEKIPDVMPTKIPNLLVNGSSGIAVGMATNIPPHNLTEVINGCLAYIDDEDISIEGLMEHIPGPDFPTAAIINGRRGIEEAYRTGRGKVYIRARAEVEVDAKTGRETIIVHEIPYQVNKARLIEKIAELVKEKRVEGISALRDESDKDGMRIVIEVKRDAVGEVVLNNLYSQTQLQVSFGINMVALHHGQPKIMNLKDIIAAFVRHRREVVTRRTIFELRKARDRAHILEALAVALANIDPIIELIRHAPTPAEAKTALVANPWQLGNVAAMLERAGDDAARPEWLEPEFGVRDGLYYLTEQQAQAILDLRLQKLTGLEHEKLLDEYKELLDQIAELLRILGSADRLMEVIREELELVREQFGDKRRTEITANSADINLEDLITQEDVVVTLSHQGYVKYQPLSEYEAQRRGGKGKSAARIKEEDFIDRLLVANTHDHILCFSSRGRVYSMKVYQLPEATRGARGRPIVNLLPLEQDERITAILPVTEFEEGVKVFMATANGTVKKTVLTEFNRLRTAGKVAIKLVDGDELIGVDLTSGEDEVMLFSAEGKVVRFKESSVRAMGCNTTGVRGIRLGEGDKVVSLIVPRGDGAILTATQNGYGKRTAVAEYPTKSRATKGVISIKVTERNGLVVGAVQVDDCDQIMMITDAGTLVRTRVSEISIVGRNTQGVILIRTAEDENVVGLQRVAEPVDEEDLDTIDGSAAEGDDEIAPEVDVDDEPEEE

[31] = tested on: Enterococcus ATCC 29212; assay: organism not typed; type: cell-based, E. faecalis; settings: ATCC 29212, E. faecalis, gyrA WT, parC WT
[32] = tested on: VRE clinical isolate S206; assay: organism not typed; type: cell-based, E. faecalis
Protocol: as §2, §1

[33] = tested on: MRSA clinical isolates; assay: Panel of MRSA clinical isolates (FIG. 2A); type: cell-based, S. aureus; settings: n=21, in words

Row | SMILES | MIC [1] [µg/mL] | MIC [2] [µg/mL] | sensitivity of VRE clinical isolates [3] | MTD [4] [mg/kg] | MIC [5] [µg/mL] | solubility [6] [µM] | MIC [7] [µg/mL] | MIC [8] [µg/mL] | MIC [9] [µg/mL] | MIC [10] [µg/mL] | MIC [11] [µg/mL] | MIC [12] [µg/mL] | MIC [13] [µg/mL] | MIC [14] [µg/mL] | MIC [15] [µg/mL] | MIC [16] [µg/mL] | MIC [17] [µg/mL] | MIC [18] [µg/mL] | MIC [19] [µg/mL] | MIC [20] [µg/mL] | also measured
1 | CCn1c(=O)cc(C)c2cc3c(C)cc(=O)n4c3c(c21)OC4 [DNM-2] | 8 (≈ 27 µM) | 0.5 (≈ 1.69 µM) | sensitive | > 50 | 0.06 to 0.12 (≈ 0.202 to 0.405 µM) | 4000 (≈ 1190 µg/mL) | 0.125 (≈ 0.422 µM) | 0.125 (≈ 0.422 µM) | 0.125 (≈ 0.422 µM) | 0.125 (≈ 0.422 µM) | 0.063 (≈ 0.213 µM) | 0.125 (≈ 0.422 µM) | 0.125 (≈ 0.422 µM) | 0.125 (≈ 0.422 µM) | 0.125 (≈ 0.422 µM) | 0.125 (≈ 0.422 µM) | 8 (≈ 27 µM) | > 24 | 2 (≈ 6.75 µM) | 0.5 (≈ 1.69 µM) | MIC [21]: 4 µg/mL (≈ 13.5 µM); MIC [22]: 1 µg/mL (≈ 3.37 µM); MIC [23]: 8 µg/mL (≈ 27 µM); MIC [24]: 2 µg/mL (≈ 6.75 µM); MIC [25]: 4 µg/mL (≈ 13.5 µM); MIC [26]: 2 µg/mL (≈ 6.75 µM); MIC [27]: 4 µg/mL (≈ 13.5 µM); MIC [28]: 0.5 µg/mL (≈ 1.69 µM); MIC [29]: 0.5 µg/mL (≈ 1.69 µM); inhibition of WT DNA gyrase [30]: poor inhibitors of WT DNA gyrase; MIC ([31]; read-out: MIC): 8 µg/mL (≈ 27 µM); MIC [32]: 2 µg/mL (≈ 6.75 µM); sensitivity of MRSA clinical isolates [33]: sensitive
2 | Cc1cc(=O)n(C)c2c3c4c(cc12)c(C)cc(=O)n4CO3 [DNM, deoxynybomycin] | > 1 | 0.25 (≈ 0.886 µM) | sensitive | > 50 | 0.03 to 0.06 (≈ 0.106 to 0.213 µM) | 200 (≈ 56.5 µg/mL) | 0.063 (≈ 0.223 µM) | 0.063 (≈ 0.223 µM) | 0.063 (≈ 0.223 µM) | 0.063 (≈ 0.223 µM) | 0.031 (≈ 0.11 µM) | 0.125 (≈ 0.443 µM) | 0.063 (≈ 0.223 µM) | 0.063 (≈ 0.223 µM) | 0.063 (≈ 0.223 µM) | 0.031 (≈ 0.11 µM) | > 1 | > 4 | 1 (≈ 3.54 µM) | 0.125 (≈ 0.443 µM) | activity against FQ-sensitive strain 29213 ([1]; in words): modest activity; MIC [21]: 1 µg/mL (≈ 3.54 µM); MIC [22]: 1 µg/mL (≈ 3.54 µM); MIC [23]: > 1 µg/mL; MIC [24]: > 1 µg/mL; MIC [25]: > 1 µg/mL; MIC [26]: 1 µg/mL (≈ 3.54 µM); MIC [27]: > 1 µg/mL; MIC [28]: 0.25 µg/mL (≈ 0.886 µM); MIC [29]: 0.25 µg/mL (≈ 0.886 µM); inhibition of WT DNA gyrase [30]: poor inhibitors of WT DNA gyrase; MIC [31]: >1 µg/mL; MIC ([31]; read-out: MIC): > 1 µg/mL; MIC [32]: 1 µg/mL (≈ 3.54 µM); sensitivity of MRSA clinical isolates [33]: sensitive
